The melting point is the temperature, or range, at which the solid turns liquid.

Results on 17 compounds are retold here after patent US9371336B2, “Compounds for treating spinal muscular atrophy” (PTC Therapeutics Inc., priority 2012, dated 2016).

Series [1] has as its system SMN2 minigene mRNA (SMN2-A minigene construct). The series is described as follows: SMN2 minigene mRNA splicing RT-qPCR assay in cultured cells. As to conditions: Homo sapiens, HEK293-H; HEK293H cells stably transfected with SMN2-A minigene, 24 hours, 7-point concentration data; concentration giving 1.5-fold SMN2 full length mRNA relative to vehicle-treated cells; read-out: EC1.5x for production of full length SMN2 mRNA. In kind it is cell-based, human. The method, boiled down: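 Full-length SMN2 minigene mRNA, measured by exon 7/luciferase-specific RT-qPCR that excludes endogenous SMN1/SMN2, was normalized to GAPDH and expressed relative to vehicle-treated cells via modified ΔΔCt. Stably transfected HEK293H cells received compound (7-point, 3.16-fold series, duplicates) for 24 h at 37 °C.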
For orientation: Real-time PCR tracks product formation cycle by cycle.

In series [2] the test system is Smn protein. Briefly: Smn protein assay (HTRF) in cultured cells (SMA patient fibroblasts GM03813). In kind it is cell-based, human. Conditions: 48 hours; for EC1.5x for Smn protein expression: SMA patient fibroblast cells (GM03813), HTRF, 7-point concentration data, concentration producing 1.5 times Smn protein vs DMSO vehicle control; for maximum fold (Fold) increase of Smn protein: SMA patient fibroblast cells, 7-point concentration curve, relative to vehicle control. The method, boiled down:
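SMA patient fibroblasts (GM03813) were treated 48 h at 37° C with a 7-point, 3.16-fold compound series in triplicate, then lysed in RIPA. Smn was read by HTRF (anti-SMN d2/kryptate, 665/620 nm ratio). ΔF versus blank was divided by vehicle ΔF to give fold Smn increase.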
On the technique in general: TR-FRET usually uses a lanthanide donor and a delayed reading to cut background.

For `CN1CCCN(c2ccc3cc(-c4cn5cccc(F)c5n4)c(=O)oc3n2)CC1` [Cpd 49, 3-(8-fluoroimidazo[1,2-a]pyridin-2-yl)-7-(4-methyl-1,4-diazepan-1-yl)-2H-pyrano[2,3-b]pyridin-2-one], the melting point fell in the range of 269 to 272 °C. The EC (1.5-fold) in series [1] was at most 0.1 µM. For the same compound, in series [2], the “EC1.5x for Smn protein expression” value is “*** (an EC1.5× between >0.3 μM and ≦1 μM is indicated by three stars (***))”; the “maximum fold (Fold) increase of Smn protein” value (“maximum fold (Fold) increase” for short) was “**** (a fold increase between >1.5 and ≦1.65 is indicated by four stars (****))”.

In turn, `Cl.O=c1oc2nc(N3CCCNCC3)ccc2cc1-c1cn2cccnc2n1` [Cpd 30, 7-(1,4-diazepan-1-yl)-3-(imidazo[1,2-a]pyrimidin-2-yl)-2H-pyrano[2,3-b]pyridin-2-one hydrochloride] displayed a melting point of 250 to 252 °C. Further, the EC (1.5-fold) in series [1] was in the range of 0.1 to 0.3 µM. Moreover, in series [2], the “EC1.5x for Smn protein expression” value is “** (an EC1.5× between >1 and ≦3 μM is indicated by two stars (**))”; the “maximum fold (Fold) increase” value was “*** (a fold increase between >1.35 and ≦1.5 is indicated by three stars (***))”.

The compound `Cc1cn2cc(-c3cc4ccc(N5CCCNCC5)nc4oc3=O)nc2cn1.Cl` [Cpd 104, 7-(1,4-diazepan-1-yl)-3-(6-methylimidazo[1,2-a]pyrazin-2-yl)-2H-pyrano[2,3-b]pyridin-2-one hydrochloride] gave a melting point of 267 to 269 °C. For the same compound, the EC (1.5-fold) in series [1] is at most 0.1 µM. The “maximum fold (Fold) increase” value in series [2] is “** (a fold increase between >1.2 and ≦1.35 is indicated by two stars (**))”.

In turn, `C[C@@H]1CN(c2ccc3cc(-c4nc5c(Cl)cccc5s4)c(=O)oc3n2)C[C@H](C)N1` [Cpd 70, 3-(4-chloro-1,3-benzothiazol-2-yl)-7-[(3R,5S)-3,5-dimethylpiperazin-1-yl]-2H-pyrano[2,3-b]pyridin-2-one] yielded a melting point of 295 to 297 °C. For the same compound, the EC (1.5-fold) in series [1] was 0.1 to 0.3 µM. Further, the “maximum fold (Fold) increase” value in series [2] is “*** (a fold increase between >1.35 and ≦1.5 is indicated by three stars (***))”.

On to `Cc1cn2cc(-c3cc4ccc(N5CCCN(C)CC5)nc4oc3=O)nc2cn1` [Cpd 105, 7-(4-methyl-1,4-diazepan-1-yl)-3-(6-methylimidazo[1,2-a]pyrazin-2-yl)-2H-pyrano[2,3-b]pyridin-2-one], for which the melting point lay within 290 to 293 °C. Besides, in series [1], the EC (1.5-fold) was at most 0.1 µM. Further, in series [2], the “EC1.5x for Smn protein expression” value is “** (an EC1.5× between >1 and ≦3 μM is indicated by two stars (**))”; the “maximum fold (Fold) increase” value is “*** (a fold increase between >1.35 and ≦1.5 is indicated by three stars (***))”.

For `CCN1CCN(c2ccc3cc(-c4cn5cc(C)nc(C)c5n4)c(=O)oc3n2)C[C@@H]1C` [Cpd 144, 3-(6,8-dimethylimidazo[1,2-a]pyrazin-2-yl)-7-[(3S)-4-ethyl-3-methylpiperazin-1-yl]-2H-pyrano[2,3-b]pyridin-2-one], the melting point was 184 to 190 °C. Also, the EC (1.5-fold) in series [1] is at most 0.1 µM. Moreover, in series [2], the “EC1.5x for Smn protein expression” value is “**** (an EC1.5×≦0.3 μM is indicated by four stars (****))”; the “maximum fold (Fold) increase” value was “**** (a fold increase between >1.5 and ≦1.65 is indicated by four stars (****))”.

`CCN1CCN(c2ccc3cc(-c4nc(C)cs4)c(=O)oc3n2)CC1` [Cpd 20, 7-(4-ethylpiperazin-1-yl)-3-(4-methyl-1,3-thiazol-2-yl)-2H-pyrano[2,3-b]pyridin-2-one] registered a melting point of 228 to 232 °C. For the same compound, the EC (1.5-fold) in series [1] was 3 to 30 µM. Further, the “maximum fold (Fold) increase” value in series [2] was “* (A maximum fold increase ≦1.2 is indicated by one star (*))”.

Turning to `O=c1oc2nc(N3CCNCC3)ccc2cc1-c1cn2cccc(Cl)c2n1` [Cpd 109, 3-(8-chloroimidazo[1,2-a]pyridin-2-yl)-7-(piperazin-1-yl)-2H-pyrano[2,3-b]pyridin-2-one], the melting point fell in the range of 233 to 237 °C. The EC (1.5-fold) in series [1] was at most 0.1 µM. For the same compound, in series [2], the “EC1.5x for Smn protein expression” value was “**** (an EC1.5×≦0.3 μM is indicated by four stars (****))”; the “maximum fold (Fold) increase” value is “**** (a fold increase between >1.5 and ≦1.65 is indicated by four stars (****))”.

Regarding `C[C@H]1CN(C)CCN1c1ccc2cc(-c3cn4cccc(F)c4n3)c(=O)oc2n1` [Cpd 68, 7-[(2S)-2,4-dimethylpiperazin-1-yl]-3-(8-fluoroimidazo[1,2-a]pyridin-2-yl)-2H-pyrano[2,3-b]pyridin-2-one], the melting point was 210 to 213 °C. Further, the EC (1.5-fold) in series [1] is at most 0.1 µM. In series [2], the “EC1.5x for Smn protein expression” value is “*** (an EC1.5× between >0.3 μM and ≦1 μM is indicated by three stars (***))”; the “maximum fold (Fold) increase” value was “**** (a fold increase between >1.5 and ≦1.65 is indicated by four stars (****))”.

With `Cc1cn2cc(-c3cc4ccc(N5C[C@@H](C)N[C@@H](C)C5)nc4oc3=O)nc2c(C)n1` [Cpd 90, 3-(6,8-dimethylimidazo[1,2-a]pyrazin-2-yl)-7-[(3R,5S)-3,5-dimethylpiperazin-1-yl]-2H-pyrano[2,3-b]pyridin-2-one], the melting point lay in the range of 279 to 282 °C. Moreover, the EC (1.5-fold) in series [1] is at most 0.1 µM. In series [2], the “EC1.5x for Smn protein expression” value is “**** (an EC1.5×≦0.3 μM is indicated by four stars (****))” and the “maximum fold (Fold) increase” value is recorded as “***** (a fold increase >1.65 is indicated by five stars (*****))”.

In turn, `CCN1CCCN(c2ccc3cc(-c4cn5cc(C)cc(F)c5n4)c(=O)oc3n2)CC1` [Cpd 138, 7-(4-ethyl-1,4-diazepan-1-yl)-3-(8-fluoro-6-methylimidazo[1,2-a]pyridin-2-yl)-2H-pyrano[2,3-b]pyridin-2-one] had a melting point of 195 to 200 °C. Besides, the EC (1.5-fold) in series [1] was at most 0.1 µM. In addition, in series [2], the “EC1.5x for Smn protein expression” value is on record as “**** (an EC1.5×≦0.3 μM is indicated by four stars (****))”; the “maximum fold (Fold) increase” value is “**** (a fold increase between >1.5 and ≦1.65 is indicated by four stars (****))”.

In turn, `CN1CCCN(c2ccc3cc(-c4cn5ccsc5n4)c(=O)oc3n2)CC1` [Cpd 114, 3-(imidazo[2,1-b][1,3]thiazol-6-yl)-7-(4-methyl-1,4-diazepan-1-yl)-2H-pyrano[2,3-b]pyridin-2-one] gave a melting point of 224 to 226 °C. Moreover, the EC (1.5-fold) in series [1] was at most 0.1 µM. Also, in series [2], the “EC1.5x for Smn protein expression” value is “*** (an EC1.5× between >0.3 μM and ≦1 μM is indicated by three stars (***))”; the “maximum fold (Fold) increase” value is “**** (a fold increase between >1.5 and ≦1.65 is indicated by four stars (****))”.

In turn, `Cc1ccc2nc(-c3cc4ccc(N5C[C@H](C)NC[C@H]5C)nc4oc3=O)cn2c1` [Cpd 87, 7-[(2R,5S)-2,5-dimethylpiperazin-1-yl]-3-(6-methylimidazo[1,2-a]pyridin-2-yl)-2H-pyrano[2,3-b]pyridin-2-one] came in with a melting point of 225 to 229 °C. Further, the EC (1.5-fold) in series [1] lay in the range of 0.1 to 0.3 µM. In series [2], the “EC1.5x for Smn protein expression” value is listed as “**** (an EC1.5×≦0.3 μM is indicated by four stars (****))” and the “maximum fold (Fold) increase” value is given as “***** (a fold increase >1.65 is indicated by five stars (*****))”.

In turn, `CCN1CCN(c2ccc3cc(-c4cn5cc(C)ncc5n4)c(=O)oc3n2)C[C@@H]1C` [Cpd 143, 7-[(3S)-4-ethyl-3-methylpiperazin-1-yl]-3-(6methylimidazo-[1,2-a]pyrazin-2-yl)-2H-pyrano[2,3-b]pyridin-2-one] showed a melting point of 252 to 256 °C. Also, in series [1], the EC (1.5-fold) was at most 0.1 µM. Besides, in series [2], the “EC1.5x for Smn protein expression” value is “*** (an EC1.5× between >0.3 μM and ≦1 μM is indicated by three stars (***))”; the “maximum fold (Fold) increase” value was “**** (a fold increase between >1.5 and ≦1.65 is indicated by four stars (****))”.

`Cc1ccc2nc(-c3cc4ccc(N5CCCNCC5)nc4oc3=O)cn2c1` [Cpd 66, 7-(1,4-diazepan-1-yl)-3-(6-methylimidazo[1,2-a]pyridin-2-yl)-2H-pyrano[2,3-b]pyridin-2-one]: the melting point lay within 240 to 243 °C. In series [1], the EC (1.5-fold) was in the range of 0.1 to 0.3 µM. In addition, in series [2], the “EC1.5x for Smn protein expression” value is “** (an EC1.5× between >1 and ≦3 μM is indicated by two stars (**))”; the “maximum fold (Fold) increase” value is “*** (a fold increase between >1.35 and ≦1.5 is indicated by three stars (***))”.

Compound `Cc1cn2cc(-c3cc4ccc(N5C[C@H](C)NC[C@H]5C)nc4oc3=O)nc2c(C)n1` [Cpd 95, 3-(6,8-dimethylimidazo[1,2-a]pyrazin-2-yl)-7-[(2R,5S)-2,5-dimethylpiperazin-1-yl]-2H-pyrano[2,3-b]pyridin-2-one] returned a melting point of 190 to 192 °C. For the same compound, the EC (1.5-fold) in series [1] was at most 0.1 µM. In series [2], the “EC1.5x for Smn protein expression” value is reported as “**** (an EC1.5×≦0.3 μM is indicated by four stars (****))” and the “maximum fold (Fold) increase” value was “***** (a fold increase >1.65 is indicated by five stars (*****))”.

With `C[C@H]1CN(c2ccc3cc(-c4cn5ccccc5n4)c(=O)oc3n2)CCN1C` [Cpd 81, 7-[(3S)-3,4-dimethylpiperazin-1-yl]-3-(imidazo[1,2-a]pyridin-2-yl)-2H-pyrano[2,3-b]pyridin-2-one], the melting point lay within 213 to 216 °C. The EC (1.5-fold) in series [1] is 0.1 to 0.3 µM. Further, in series [2], the “EC1.5x for Smn protein expression” value is “**** (an EC1.5×≦0.3 μM is indicated by four stars (****))” and the “maximum fold (Fold) increase” value was “***** (a fold increase >1.65 is indicated by five stars (*****))”.
